According to patent publication US20220047569A1, “METHOD AND COMPOUND FOR USE, IN TREATING AND/OR PREVENTING NETOSIS” (Jubilant EpiPad LLC, priority 2020, published 2022):

Tested on: Histone H3 Citrullination in Neutrophils
Test: Citrullination ELISA (Citrullinated Histone H3) in calcium ionophore stimulated neutrophils
Assay type: cell-based
Conditions: Neutrophil; human neutrophils, 25 μM calcium ionophore, CitH3 ELISA
In short: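 Freshly isolated human donor neutrophils in RPMI with 2% BSA and 1 mM CaCl2 were pre-incubated 30 min with compound (10, 1, 0.1 μM), then stimulated 30 min with 25 μM calcium ionophore. After S7 nuclease digestion, lysates were assayed by citrullinated histone H3 ELISA (450 nm); IC50 from sigmoidal fits.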

`COc1ccc2cc(-c3nc4cc(C(=O)N5CCC[C@@H](N)C5)cc5c4n3CCO5)n(CC3CC3)c2c1` [Compound 109, (R)-(3-aminopiperidin-1-yl)(2-(1-(cyclopropylmethyl)-6-methoxy-1H-indol-2-yl)-3,4-dihydro-5-oxa-1,2a-diazaacenaphthylen-7-yl)methanone] and `COCCn1c(-c2nc3cc(C(=O)N4CCC[C@@H](N)C4)cc4c3n2CCO4)cc2ccc(OC)cc21` [Compound 107, (R)-(3-aminopiperidin-1-yl)(2-(6-methoxy-1-(2-methoxyethyl)-1H-indol-2-yl)-3,4-dihydro-5-oxa-1,2a-diazaacenaphthylen-7-yl)methanone] fall in the same range of IC50: 100 to 1000 nM for the first, 100 to 1000 nM for the second.

Compared with `N[C@@H]1CCCN(C(=O)c2cc3c4c(c2)nc(-c2cc5ccc(F)cc5n2Cc2ncccc2F)n4CCO3)C1` [Compound 121, (R)-(3-aminopiperidin-1-yl)(2-(6-fluoro-1-((3-fluoropyridin-2-yl)methyl)-1H-indol-2-yl)-3,4-dihydro-5-oxa-1,2a-diazaacenaphthylen-7-yl)methanone], `COc1ccc2cc(-c3nc4cc(C(=O)N5CCC[C@@H](N)C5)cc5c4n3CCO5)n(Cc3ncccc3F)c2c1` [Compound 119, (R)-(3-aminopiperidin-1-yl)(2-(1-((3-fluoropyridin-2-yl)methyl)-6-methoxy-1H-indol-2-yl)-3,4-dihydro-5-oxa-1,2a-diazaacenaphthylen-7-yl)methanone] is lower in IC50: > 1000 nM for the first, 100 to 1000 nM for the second. The second is the more potent here.

`CCn1c(-c2nc3cc(C(=O)N4CCC[C@@H](N)C4)ccn3c2C)cc2ccc(OC)cc21` [Compound 67, (R)-(3-aminopiperidin-1-yl)(2-(1-ethyl-6-methoxy-1H-indol-2-yl)-3-methylimidazo[1,2-a]pyridin-7-yl)methanone] and `Cc1c(-c2cc3ccccc3n2CC(C)C)nc2cc(C(=O)N3CCC[C@@H](N)C3)ccn12` [Compound 60, (R)-(3-aminopiperidin-1-yl)(2-(1-isobutyl-1H-indol-2-yl)-3-methylimidazo[1,2-a]pyridin-7-yl)methanone] cannot be ordered by IC50: > 1000 nM for the first, > 1000 nM for the second.

Compared with `CC(=O)N1CCn2c(-c3cc4ccccc4n3CC3CC3)nc3cc(C(=O)N4CCC[C@@H](N)C4)cc1c32` [Compound 171, (R)-1-(8-(3-aminopiperidine-1-carbonyl)-2-(1-(cyclopropylmethyl)-1H-indol-2-yl)-4,5-dihydro-6H-imidazo[1,5,4-de]quinoxalin-6-yl)ethan-1-one], `N[C@@H]1CCCN(C(=O)c2cc3c4c(c2)nc(-c2cc5ccccc5n2CC2CC2)n4CCN3)C1` [Compound 149, (R)-(3-aminopiperidin-1-yl)(2-(1-(cyclopropylmethyl)-1H-indol-2-yl)-5,6-dihydro-4H-imidazo[1,5,4-de]quinoxalin-8-yl)methanone] is higher in IC50: < 100 nM for the first, 100 to 1000 nM for the second.

`N[C@@H]1CCCN(C(=O)c2cc3c4c(c2)nc(-c2cc5cc(F)c(F)cc5n2CC2CC2)n4CCN3)C1` [Compound 163, (R)-(3-aminopiperidin-1-yl)(2-(1-(cyclopropylmethyl)-5,6-difluoro-1H-indol-2-yl)-5,6-dihydro-4H-imidazo[1,5,4-de]quinoxalin-8-yl)methanone] and `N[C@@H]1CCCN(C(=S)c2cc3c4c(c2)nc(-c2cc5ccccc5n2CC2CC2)n4CCN3)C1` [Compound 172, (R)-(3-aminopiperidin-1-yl)(2-(1-(cyclopropylmethyl)-1H-indol-2-yl)-5,6-dihydro-4H-imidazo[1,5,4-de]quinoxalin-8-yl)methanethione] cannot be ordered by IC50: < 100 nM for the first, < 100 nM for the second.

Compared with `Cc1c(-c2cc3ccccc3n2CC2CCC2)nc2cc(C(=O)N3CCC[C@@H](N)C3)ccn12` [Compound 61, (R)-(3-aminopiperidin-1-yl)(2-(1-(cyclobutylmethyl)-1H-indol-2-yl)-3-methylimidazo[1,2-a]pyridin-7-yl)methanone], `Cc1c(-c2cc3ccccc3n2CC2CCOCC2)nc2cc(C(=O)N3CCC[C@@H](N)C3)ccn12` [Compound 11, (R)-(3-aminopiperidin-1-yl)(3-methyl-2-(1-((tetrahydro-2H-pyran-4-yl)methyl)-1H-indol-2-yl)imidazo[1,2-a]pyridin-7-yl)methanone] is lower in IC50: > 1000 nM for the first, 100 to 1000 nM for the second.

`N[C@@H]1CCCN(C(=O)c2cc3c4c(c2)nc(-c2cc5ccccc5n2Cc2cccnc2)n4CCN3)C1` [Compound 152, (R)-(3-aminopiperidin-1-yl)(2-(1-(pyridin-3-ylmethyl)-1H-indol-2-yl)-5,6-dihydro-4H-imidazo[1,5,4-de]quinoxalin-8-yl)methanone] and `N[C@@H]1CCCN(C(=O)c2cc3c4c(c2)nc(-c2cc5ccccc5n2Cc2ccccc2F)n4CCN3)C1` [Compound 156, (R)-(3-aminopiperidin-1-yl)(2-(1-(2-fluorobenzyl)-1H-indol-2-yl)-5,6-dihydro-4H-imidazo[1,5,4-de]quinoxalin-8-yl)methanone] cannot be ordered by IC50: < 100 nM for the first, < 100 nM for the second.

First: COCCn1c(-c2nc3cc(C(=O)N4CCC[C@@H](N)C4)cc4c3n2CCO4)cc2cccc(Cl)c21 [Compound 122, (R)-(3-aminopiperidin-1-yl)(2-(7-chloro-1-(2-methoxyethyl)-1H-indol-2-yl)-3,4-dihydro-5-oxa-1,2a-diazaacenaphthylen-7-yl)methanone]
Second: COc1ccc(Cn2c(-c3nc4cc(C(=O)N5CCC[C@@H](N)C5)cc5c4n3CCO5)cc3cccc(Cl)c32)cc1 [Compound 125, (R)-(3-aminopiperidin-1-yl)(2-(7-chloro-1-(4-methoxybenzyl)-1H-indol-2-yl)-3,4-dihydro-5-oxa-1,2a-diazaacenaphthylen-7-yl)methanone]
The IC50 of the first is higher: 100 to 1000 nM for the first, < 100 nM for the second.

First: Cc1c(-c2cc3ccc(F)cc3n2Cc2cccnc2)nc2cc(C(=O)N3CCC[C@@H](N)C3)ccn12 [Compound 69, (R)-(3-aminopiperidin-1-yl)(2-(6-fluoro-1-(pyridin-3-ylmethyl)-1H-indol-2-yl)-3-methylimidazo[1,2-a]pyridin-7-yl)methanone]
Second: Cc1c(-c2cc3cc(F)ccc3n2Cc2ccncc2)nc2cc(C(=O)N3CCC[C@@H](N)C3)ccn12 [Compound 74, (R)-(3-aminopiperidin-1-yl)(2-(5-fluoro-1-(pyridin-4-ylmethyl)-1H-indol-2-yl)-3-methylimidazo[1,2-a]pyridin-7-yl)methanone]
The IC50 of the first is lower: 100 to 1000 nM for the first, > 1000 nM for the second.

Compared with `N[C@@H]1CCCN(C(=O)c2cc3c4c(c2)nc(-c2cc5ccccc5n2Cc2ccccc2)n4CCO3)C1` [Compound 104, (R)-(3-aminopiperidin-1-yl)(2-(1-benzyl-1H-indol-2-yl)-3,4-dihydro-5-oxa-1,2a-diazaacenaphthylen-7-yl)methanone], `N[C@@H]1CCCN(C(=O)c2cc3c4c(c2)nc(-c2cc5ccccc5n2Cc2ncccc2F)n4CCO3)C1` [Compound 112, (R)-(3-aminopiperidin-1-yl)(2-(1-((3-fluoropyridin-2-yl)methyl)-1H-indol-2-yl)-3,4-dihydro-5-oxa-1,2a-diazaacenaphthylen-7-yl)methanone] is lower in IC50: 100 to 1000 nM for the first, < 100 nM for the second.

First: Cc1c(-c2cc3ccccc3n2Cc2ccc(F)cn2)nc2cc(C(=O)N3CCC[C@@H](N)C3)ccn12 [Compound 79, (R)-(3-aminopiperidin-1-yl)(2-(1-((5-fluoropyridin-2-yl)methyl)-1H-indol-2-yl)-3-methylimidazo[1,2-a]pyridin-7-yl)methanone]
Second: COc1ccc(Cn2c(-c3nc4cc(C(=O)N5CCC[C@@H](N)C5)ccn4c3C)cc3cc(F)ccc32)cc1 [Compound 75, (R)-(3-aminopiperidin-1-yl)(2-(5-fluoro-1-(4-methoxybenzyl)-1H-indol-2-yl)-3-methylimidazo[1,2-a]pyridin-7-yl)methanone]
The IC50 of the first is higher: > 1000 nM for the first, 100 to 1000 nM for the second. The second is the more potent here.
